Key:
[1] = target: T1, B1R receptor of the rat (bradykinin 1 receptor) (Rattus norvegicus, UniProt P97583); assay: FLIPR Ca2+ assay (Fluo-4) on CHO K1 cells stably transfected with the B1R gene of the rat; % activation and % inhibition at 10 μM; type: cell-based; details: CHO-K1, test substance 10 μM; CHO K1 rB1R cells; Ca2+ inflow after 100 nM Des-Arg9-bradykinin; read-out: B1R antagonism, rat [10 μM] % inhibition
T1 construct: host or cells: CHO K1 cells (rB1R cells)
T1 sequence (P97583 1-337): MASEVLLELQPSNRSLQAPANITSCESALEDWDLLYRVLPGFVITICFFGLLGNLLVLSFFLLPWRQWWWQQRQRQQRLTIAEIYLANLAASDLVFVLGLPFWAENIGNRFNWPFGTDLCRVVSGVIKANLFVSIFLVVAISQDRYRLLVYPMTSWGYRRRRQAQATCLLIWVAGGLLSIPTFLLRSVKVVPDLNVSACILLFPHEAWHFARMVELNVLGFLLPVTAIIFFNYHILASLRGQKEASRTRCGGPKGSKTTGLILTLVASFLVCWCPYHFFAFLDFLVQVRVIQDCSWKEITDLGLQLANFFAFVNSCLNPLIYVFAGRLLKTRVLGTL
Outline: (§1)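 Fluo-4 Ca2+ flux on FLIPR in stable hB1R or rB1R CHO K1 lines, two additions. Agonism: 10 µM compound versus 0.5 nM Lys-Des-Arg9-BK (human) or 100 nM Des-Arg9-BK (rat); antagonism: same agonists applied 10 min later, suppression expressed against maximum achievable inhibition.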

[2] = target: T2, human B1R receptor (bradykinin 1 receptor) (Homo sapiens, UniProt P46663); assay: FLIPR Ca2+ assay (Fluo-4) on CHO K1 cells stably transfected with the human B1R gene; % activation and % inhibition at 10 μM; type: cell-based; details: CHO-K1, test substance 10 μM; CHO K1 hB1R cells; Ca2+ inflow after 0.5 nM Lys-Des-Arg9-bradykinin; read-out: B1R antagonism, human [10 μM] % inhibition
T2 construct: host or cells: CHO K1 cells (hB1R cells)
T2 sequence (P46663 1-353): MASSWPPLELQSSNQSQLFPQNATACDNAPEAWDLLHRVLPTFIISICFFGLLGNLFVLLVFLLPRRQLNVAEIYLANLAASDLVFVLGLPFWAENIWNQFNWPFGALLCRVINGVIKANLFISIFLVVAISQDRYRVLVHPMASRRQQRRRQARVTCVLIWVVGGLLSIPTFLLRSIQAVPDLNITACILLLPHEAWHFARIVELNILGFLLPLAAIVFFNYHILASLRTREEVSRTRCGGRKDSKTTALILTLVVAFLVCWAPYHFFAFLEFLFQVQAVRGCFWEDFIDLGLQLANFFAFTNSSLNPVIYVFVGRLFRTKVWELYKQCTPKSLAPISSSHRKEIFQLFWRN
Outline: as §1

Row | inhibition at 10 µM [1] [%] | inhibition at 10 µM [2] [%] | Structure (SMILES)
1 | 60.3 | 30.3 | O=C(COCC1CCCCN1S(=O)(=O)c1ccc(C(F)(F)F)cc1)N1CCC(O)(c2cccnc2)CC1 (centres unmarked) [Example 155, 1-(4-hydroxy-4-(pyridin-3-yl)piperidin-1-yl)-2-((1-(4-(trifluoromethyl)phenylsulfonyl)piperidin-2-yl)methoxy)ethanone]
2 | 70.3 | 20.9 | O=C(COCC1CCCCN1S(=O)(=O)c1ccc(C(F)(F)F)cc1)N1CCC(O)(c2ccc(Cl)cc2)CC1 (centres unmarked) [Example 156, 1-(4-(4-chlorophenyl)-4-hydroxypiperidin-1-yl)-2-((1-(4-(trifluoromethyl)phenylsulfonyl)piperidin-2-yl)methoxy)ethanone]
3 | 101 | 77.1 | Cc1cc(S(=O)(=O)N2CCCCC2COCC(=O)N2CCC(O)(c3cccnc3)CC2)c(C)cc1Cl (centres unmarked) [Example 157, 2-((1-(4-chloro-2,5-dimethylphenylsulfonyl)piperidin-2-yl)methoxy)-1-(4-hydroxy-4-(pyridin-3-yl)piperidin-1-yl)ethanone]
4 | 105 | 44.9 | Cc1cc(S(=O)(=O)N2CCCCC2COCC(=O)N2CCC(O)(c3ccccc3)CC2)c(C)cc1Cl (centres unmarked) [Example 158, 2-((1-(4-chloro-2,5-dimethylphenylsulfonyl)piperidin-2-yl)methoxy)-1-(4-hydroxy-4-phenylpiperidin-1-yl)ethanone]
5 | 97 | 38.5 | Cc1cc(S(=O)(=O)N2CCCCC2COCC(=O)N2CCC(O)(Cc3ccccc3)CC2)c(C)cc1Cl (centres unmarked) [Example 159, 1-(4-benzyl-4-hydroxypiperidin-1-yl)-2-((1-(4-chloro-2,5-dimethylphenylsulfonyl)piperidin-2-yl)methoxy)ethanone]
6 | 80.8 | 78.5 | Cc1ccc(S(=O)(=O)N2CCCCC2COCC(=O)N2CCC(O)(c3cccnc3)CC2)cc1Cl (centres unmarked) [Example 161, 2-((1-(3-chloro-4-methylphenylsulfonyl)piperidin-2-yl)methoxy)-1-(4-hydroxy-4-(pyridin-3-yl)piperidin-1-yl)ethanone]
7 | 105 | 24.6 | O=C(COCC1CCCCN1S(=O)(=O)c1c(Cl)cc(C(F)(F)F)cc1Cl)N1CCC(O)(c2ccccc2)CC1 (centres unmarked) [Example 162, 2-((1-(2,6-dichloro-4-(trifluoromethyl)phenylsulfonyl)piperidin-2-yl)methoxy)-1-(4-hydroxy-4-phenylpiperidin-1-yl)ethanone]
8 | 101 | 46.1 | O=C(COCC1CCCCN1S(=O)(=O)c1c(Cl)cc(C(F)(F)F)cc1Cl)N1CCC(O)(Cc2ccccc2)CC1 (centres unmarked) [Example 163, 1-(4-benzyl-4-hydroxypiperidin-1-yl)-2-((1-(2,6-dichloro-4-(trifluoromethyl)phenylsulfonyl)piperidin-2-yl)methoxy)ethanone]
9 | 103 | 36.4 | O=C(COCC1CCCCN1S(=O)(=O)c1c(Cl)cc(C(F)(F)F)cc1Cl)N1CCC(O)(c2cccc(C(F)(F)F)c2)CC1 (centres unmarked) [Example 164, 2-((1-(2,6-dichloro-4-(trifluoromethyl)phenylsulfonyl)piperidin-2-yl)methoxy)-1-(4-hydroxy-4-(3-(trifluoromethyl)phenyl)piperidin-1-yl)ethanone]
10 | 104 | 2.63 | O=C(COCC1CCCCN1S(=O)(=O)c1c(Cl)cc(C(F)(F)F)cc1Cl)N1CCC(O)(c2ccc(Cl)c(C(F)(F)F)c2)CC1 (centres unmarked) [Example 165, 1-(4-(4-chloro-3-(trifluoromethyl)phenyl)-4-hydroxypiperidin-1-yl)-2-((1-(2,6-dichloro-4-(trifluoromethyl)phenylsulfonyl)piperidin-2-yl)methoxy)ethanone]
11 | 104 | 58.5 | O=C(COCC1CCCN1S(=O)(=O)c1c(Cl)cc(C(F)(F)F)cc1Cl)N1CCC(O)(c2ccc(Cl)cc2)CC1 (centres unmarked) [Example 166, 1-(4-(4-chlorophenyl)-4-hydroxypiperidin-1-yl)-2-((1-(2,6-dichloro-4-(trifluoromethyl)phenylsulfonyl)pyrrolidin-2-yl)methoxy)ethanone]
12 | 104 | 41.5 | O=C(COCC1CCCN1S(=O)(=O)c1c(Cl)cc(C(F)(F)F)cc1Cl)N1CCC(O)(c2ccc(Br)cc2)CC1 (centres unmarked) [Example 167, 1-(4-(4-bromophenyl)-4-hydroxypiperidin-1-yl)-2-((1-(2,6-dichloro-4-(trifluoromethyl)phenylsulfonyl)pyrrolidin-2-yl)methoxy)ethanone]
13 | 104 | 33.1 | O=C(COCC1CCCN1S(=O)(=O)c1c(Cl)cc(C(F)(F)F)cc1Cl)N1CCC(O)(c2ccccc2)CC1 (centres unmarked) [Example 168, 2-((1-(2,6-dichloro-4-(trifluoromethyl)phenylsulfonyl)pyrrolidin-2-yl)methoxy)-1-(4-hydroxy-4-phenylpiperidin-1-yl)ethanone]
14 | 79.4 | 14.6 | O=C(COCC1CCCN1S(=O)(=O)c1c(Cl)cc(C(F)(F)F)cc1Cl)N1CCC(O)(Cc2ccccc2)CC1 (centres unmarked) [Example 169, 1-(4-benzyl-4-hydroxypiperidin-1-yl)-2-((1-(2,6-dichloro-4-(trifluoromethyl)phenylsulfonyl)pyrrolidin-2-yl)methoxy)ethanone]
15 | 103 | 25.7 | O=C(COCC1CCCN1S(=O)(=O)c1c(Cl)cc(C(F)(F)F)cc1Cl)N1CCC(O)(c2cccc(C(F)(F)F)c2)CC1 (centres unmarked) [Example 170, 2-((1-(2,6-dichloro-4-(trifluoromethyl)phenylsulfonyl)pyrrolidin-2-yl)methoxy)-1-(4-hydroxy-4-(3-(trifluoromethyl)phenyl)piperidin-1-yl)ethanone]
16 | 104 | 0.56 | O=C(COCC1CCCN1S(=O)(=O)c1c(Cl)cc(C(F)(F)F)cc1Cl)N1CCC(O)(c2ccc(Cl)c(C(F)(F)F)c2)CC1 (centres unmarked) [Example 171, 1-(4-(4-chloro-3-(trifluoromethyl)phenyl)-4-hydroxypiperidin-1-yl)-2-((1-(2,6-dichloro-4-(trifluoromethyl)phenylsulfonyl)pyrrolidin-2-yl)methoxy)ethanone]
17 | 105 | 103 | O=C(COCC1CCCCN1S(=O)(=O)c1ccccc1C(F)(F)F)N1CCC(O)(c2cccnc2)CC1 (centres unmarked) [Example 172, 1-(4-hydroxy-4-(pyridin-3-yl)piperidin-1-yl)-2-((1-(2-(trifluoromethyl)phenylsulfonyl)piperidin-2-yl)methoxy)ethanone]
18 | 104 | 103 | O=C(COCC1CCCCN1S(=O)(=O)c1ccccc1C(F)(F)F)N1CCC(O)(c2ccc(Cl)cc2)CC1 (centres unmarked) [Example 173, 1-(4-(4-chlorophenyl)-4-hydroxypiperidin-1-yl)-2-((1-(2-(trifluoromethyl)phenylsulfonyl)piperidin-2-yl)methoxy)ethanone]
19 | 105 | 102 | O=C(COCC1CCCCN1S(=O)(=O)c1ccccc1C(F)(F)F)N1CCC(O)(c2ccc(Br)cc2)CC1 (centres unmarked) [Example 174, 1-(4-(4-bromophenyl)-4-hydroxypiperidin-1-yl)-2-((1-(2-(trifluoromethyl)phenylsulfonyl)piperidin-2-yl)methoxy)ethanone]
20 | 104 | 86 | O=C(COCC1CCCCN1S(=O)(=O)c1ccccc1C(F)(F)F)N1CCC(O)(c2ccccc2)CC1 (centres unmarked) [Example 175, 1-(4-hydroxy-4-phenylpiperidin-1-yl)-2-((1-(2-(trifluoromethyl)phenylsulfonyl)piperidin-2-yl)methoxy)ethanone]
21 | 102 | 91 | O=C(COCC1CCCCN1S(=O)(=O)c1ccccc1C(F)(F)F)N1CCC(O)(Cc2ccccc2)CC1 (centres unmarked) [Example 176, 1-(4-benzyl-4-hydroxypiperidin-1-yl)-2-((1-(2-(trifluoromethyl)phenylsulfonyl)piperidin-2-yl)methoxy)ethanone]
22 | 104 | 101 | O=C(COCC1CCCCN1S(=O)(=O)c1ccccc1C(F)(F)F)N1CCC(O)(c2cccc(C(F)(F)F)c2)CC1 (centres unmarked) [Example 177, 1-(4-hydroxy-4-(3-(trifluoromethyl)phenyl)piperidin-1-yl)-2-((1-(2-(trifluoromethyl)phenylsulfonyl)piperidin-2-yl)methoxy)ethanone]

From US8580965B2, “Substituted sulfonamide compounds” (Gruenenthal GmbH, priority 2006, dated 2013)
